According to US12391643B2, “Substituted amino-thiol and amino-disulfide compounds, and uses thereof” (The Regents of the University of California, priority 2019, dated 2025):
Entries after “also recorded” stand apart in the source; their conditions may differ. Structures can show the parent of a compound that is named as a salt. Blank lines part the entries; values can stand above or below the molecule they belong to.

Key:
[1] = tested on: cystinotic fibroblasts; assay: Intracellular NEM-cysteamine, NEM-cysteine, cystamine and mixed disulfide levels in cystinotic fibroblasts; type: cell-based, human; details: for NEM-cysteamine level during constant incubation: 100 uM drug, early timepoints, normalized against d4-cystine; for Intracellular cystamine level during constant drug incubation: FIG. 10; for NEM-cysteine level after 3 h incubation and washout: washout period
Method: (§1) In vitro experiments with isotopically enriched cystamine in cystinotic fibroblasts. Fibroblasts from a de-identified cystinotic patient were split 3× from 2 plates into 36 plates. Three different drugs were used for the experiments: cystamine (non-labeled), d2-cystamine, and d4-cystamine. There were two time series for each drug. The first was with constant drug incubation and included: 0, 10 min, 30 min, 1 h, 3 h, and 5 h. The other series included a washout after 3 h drug incubation, using fresh media following a PBS wash, and included the timepoints: 0, 30 min, 1 h, 3 h, 5 h, and 17 h. A direct quench and extraction technique were used for harvesting all cells to minimize further oxidation and metabolism. This included 2× washes with PBS that included 5 mM N-ethylmaleimide for trapping free thiol groups, and then scraping the plates with an acidified organic solvent extraction solution containing both d4-cystine and d4-cysteamine (plus d-8 cystamine) as internal standards. All samples were run on an API 4500 triple quadrupole LC-MS/MS, with selective reaction monitoring (SRM/MRM) for the following compounds of interest: cystine, NEM-cysteamine, NEM-cysteine, cystamine, and 2-(methylthio)ethylamine. All data fit well to single exponential curves (either decay or association), except where mentioned.
NEM-cysteamine and NEM-cysteine during constant incubation. Fibroblast cultures were exposed to drug (either cystamine, d2-cystamine, or d4-cystamine) and harvested as described on page 2 for the cystine depletion curve. NEM-cysteamine (or NEM-d1-cysteamine or NEM-d2-cysteamine) was measured for each respective plate and normalized against the signal for d4-cystine.
NEM-cysteamine during washout. Fibroblast cultures were exposed to drug (either cystamine, d2-cystamine, or d4-cystamine) for 3 h were then exposed to media for various timepoints and harvested as previously described.
NEM-cysteine during washout. Fibroblast cultures were exposed to drug (either cystamine, d2-cystamine, or d4-cystamine) for 3 h were then exposed to media for various timepoints and harvested as previously described.
Cystamine during constant drug incubation. Fibroblast cultures were exposed to drug (either cystamine, d2-cystamine, or d4-cystamine) for various timepoints following harvesting as described earlier. Cystamine could be measured in the non-labeled cystamine incubation as well as the d4-cystamine incubation. d2-cystamine could not be accurately measured due to a strong background interference signal corresponding to that mass. No cystamine could be measured in the washout experiments.

[2] = tested on: cystinotic fibroblasts; assay: as above; type: cell-based, human; details: cystamine 50, 100, 200 μM compared with cysteamine 200 μM (FIG. 2)
[3] = tested on: cystinotic fibroblasts; assay: Cystine depletion during constant drug exposure in cystinotic fibroblasts; type: cell-based, human; details: for Reduction of intracellular cystine levels: cystamine 50, 100, 200 μM, cysteamine 200 μM (FIG. 1); for Rate of intracellular cystine depletion, comparison in words: 100 uM constant exposure, 0-5 h, vs cystamine
Method: as §1
Following incubation, cells were washed 2× in PBS containing N-ethylmaleimide.
(§2) Fibroblasts from a de-identified cystinotic patient were split 3× from 2 plates into 18 plates. Two different drugs were used for the experiments: D4n-cystamine, and D8-cystamine. There were two time series for each drug. The first was with constant drug incubation and included: 0, 15 min, 30 min, 1 hr, and 3 hr. The other series included a washout after 3 hours of drug incubation, using fresh media following a PBS wash, and included the time-points: 0, 1 hr, 3 hr, and 16 hr. A direct quench and extraction technique was used for harvesting all cells to minimize further oxidation and metabolism. […] All samples were run on an API 4500 triple quadruple LC-MS/MS, with selective reaction monitoring (SRM/MRM) for the following compounds of interest: cystine, NEM-cysteamine, NEM-cysteine, and cystamine. All data fit well to single exponential curves (either decay or association), except where mentioned.

[4] = tested on: Pooled human hepatocytes; assay: Hepatocyte elimination (in vitro metabolic stability, percent parent remaining by LC/MS/MS); type: in vitro ADME; details: for Rate of hepatocyte elimination / stability, comparison in words: compared with other forms
From the text: In vitro experiments with isotopically enriched cystamine and cysteamine in hepatocytes.
The assessment of in vitro metabolic stability provides a means to measure the susceptibility of a test compound to biotransformation by the liver. While liver microsomes primarily assess cytochrome P450 system-mediated metabolism (phase I metabolism), hepatocytes represent a complete, undisrupted metabolic system, including cofactors, and thus assess both phase I and phase II metabolism. In all cases, the metabolic stability of test compounds was determined by monitoring, via LC/MS/MS, the percent parent compound remaining versus time of incubation in human hepatocytes.
Pooled human hepatocytes (catalog number HMCS10, ThermoFischer Scientific) were thawed according to the manufacturers instructions. Thawed hepatocytes were washed by centrifugation and replated in Williams' Medium E supplemented with Heptocyte Plating Supplement Pack, Serum-containing.
Cells were diluted to 1,000,000 per ml in maintenance media (Williams' E Media supplemented with Hepatocyte Maintenance Supplement Pack, Serum-free). 500 μl of cell suspension was added to each well of a microtiter plate containing 500 μl of the deuterated test agent and placed on an orbital shaker at 120 rpm at 37 C. At the appropriate time point 50 μl aliquots were removed from the well and added to 50 μl of ice cold ethyl acetate and vortexed for 5 min and froze until chromatography analysis.

[5] = tested on: cystinotic fibroblasts; assay: Cystine re-accumulation after washout in cystinotic fibroblasts; type: cell-based, human; details: for Cystine reaccumulation after washout, D4n vs D8: 50 μM for 3 hours, then media 1 h, 3 h, 16 h
Method: as §1
Cystine measurement after washout: Fibroblast cultures were exposed to 100 uM cystamine/d2-cystamine/d4-cystamine for 3 h. Following incubation, cells were washed with PBS, and then incubated with regular media (containing FBS) for the following timepoints: 0 min, 30 min, 1 h, 3 h, 5 h, and 17 h. Cells were harvested identically as described previously.
as §2
Fibroblast cultures were exposed to 50 μM cystamine (D8 or D4n) for 3 hours. Following incubation, cells were washed with PBS and then incubated with regular mediate containing FBS for 1 h, 3 h, and 16 h. Cells were harvested as above. […] Cystine reaccumulation between D4n-cystamine and D8-cystamine are very similar, indicating similar levels of drug remaining during the washout timepoints (FIG. 15).

[6] = tested on: steatosis; details: 400-1000 IU/day for 4-10 months, cited from earlier work
[7] = tested on: C57BL/6 male mice on CDAHFD diet; assay: In vivo NASH model, prevention phase (drug in drinking water, 8 weeks); details: about 200 mg/kg/day in drinking water, n=8 per group
Method: (§3) In vivo NASH Models. NASH models from normal C57BL/6 male mice on CDAHFD diet (choline deficient, L-amino acid defined, high fat diet with restricted amount of methionine) were used. Two deuterated cystamine molecules were tested:
(§4) Two phase study was performed: (1) A prevention and (2) a treatment phase. 48 Mice were separated into nine groups of mice as described below. Histology at end of each study was performed looking for specific features of NASH (steatohepatitis, ballooning, fibrosis). The primary endpoint was plasma ALT measurement. Gene expression studies for fibrosis, inflammation were also performed.
Drug (D2 or D4) was administered in drinking water at a concentration to deliver animals about 200 mg/kg/day of drug. Daily weight. Volume of fluid drunk/day was also measured.
Prevention Phase. Group 1: Control mice on CDAHFD for 8 weeks. Blood drawn at 0, 4, and 8 weeks. Group 2: Mice on CDAHFD plus D2 at 200 mg/kg/day for 8 weeks. Blood drawn at 0, 4, and 8 weeks. Group 3: Mice on CDAHFD plus D4 at 200 mg/kg/day for 8 weeks. Blood drawn at 0, 4, and 8 weeks. Group 4: Control mice (n=4) continue on CDAHFD for 2 weeks. Blood at baseline and at 2 weeks. Liver histology at 2 weeks. Group 5: Mice (n=4) on CDAHFD for 2 weeks plus D2 at 200 mg/kg/day administered via daily gavage. Blood at 0 and 2 weeks and histology at 2 weeks. […]

[8] = tested on: C57BL/6 male mice on CDAHFD diet; assay: In vivo NASH model, treatment phase (8 weeks CDAHFD, then 2 weeks daily gavage); details: for Fatty deposits / fat globules in liver, H&E staining: 200 mg/kg/day
Method: Liver Inflammatory Cells. CD11b stains macrophages and microglia. CD11b staining of liver tissue was taken after 10 weeks of CDAHFD in three groups of mice. […] At 8 weeks, treatment group 2 (“C2”) mice started gavage feeding with D2-Cystamine at 200 mg/kg/day once daily gavage, and treatment group 3 (“C3”) mice received D4-Cystamine at 200 mg/kg/day by once daily gavage.
as §3, §4
Prevention Phase. Group 1: Control mice on CDAHFD for 8 weeks. Blood drawn at 0, 4, and 8 weeks. Group 2: Mice on CDAHFD plus D2 at 200 mg/kg/day for 8 weeks. Blood drawn at 0, 4, and 8 weeks. Group 3: Mice on CDAHFD plus D4 at 200 mg/kg/day for 8 weeks. Blood drawn at 0, 4, and 8 weeks. Group 4: Control mice (n=4) continue on CDAHFD for 2 weeks. Blood at baseline and at 2 weeks. Liver histology at 2 weeks. Group 5: Mice (n=4) on CDAHFD for 2 weeks plus D2 at 200 mg/kg/day administered via daily gavage. Blood at 0 and 2 weeks and histology at 2 weeks. Group 6: Mice (n=4) on CDAHFD for 2 weeks plus D4 at 200 mg/kg/day administered via daily gavage. Blood at 0 and 2 weeks and histology at 2 weeks.
Treatment Study Results. Groups 4, 5 and 6 mice received 8 weeks of CDAHDF diet before beginning treatment with deuterated compounds of the disclosure. During the treatment phase the mice continued to receive CDAHDF diet. Four mice were set in each group: control (C1) not receiving any drug; treatment (C2) receiving 200 mg/kg of cystamine D2 by once daily gavage; and treatment (C3) receiving 200 mg/kg cystamine D4 by once daily gavage.

[9] = tested on: intracellular cystine (circulating white blood cells); details: taken regularly; measured in circulating white blood cells; cited from earlier work

Hepatocyte elimination, % remaining ([4]; TIME 0 min): 100% | Hepatocyte elimination, % remaining ([4]; TIME 15 min): 18.5% | Hepatocyte elimination, % remaining ([4]; TIME 30 min): 6.5%
Molecule: NCCSSCCN [Cystamine]
NEM-cysteamine level during constant incubation [1]: faster/higher; also recorded: Higher levels of cysteamine | NEM-cysteamine level during constant incubation ([1]; listed as non-labeled cystamine): highest | Intracellular cystamine level during constant drug incubation [1]: deplete rapidly | Intracellular cystamine level during constant drug incubation ([1]; listed as cystamine): depletes rapidly | NEM-cysteine level after 3 h incubation and washout [1]: rise and increase | Conversion of intracellular cystine to mixed disulfide (MD) of cysteine-cysteamine [2]: delayed | Reduction of intracellular cystine levels [3]: effective in reducing intracellular cystine levels in a dose-response fashion | Cystine level 17 h after washout versus plates not exposed to cystamine ([5]; 3 h incubation with 100 μM cystamine, then cystamine-free media): identical to the 17 h cystine measurement

Molecule: 2-aminoethane-1-d-1-thiol hydrochloride [D-cysteamine]
Rate of hepatocyte elimination / stability, comparison in words [4]: slower rate than cysteamine bitartrate

Hepatocyte elimination, % remaining ([4]; TIME 0 min): 100% | Hepatocyte elimination, % remaining ([4]; TIME 15 min): 131.4% | Hepatocyte elimination, % remaining ([4]; TIME 30 min): 35.9% | Hepatocyte elimination, % remaining ([4]; TIME 60 min): 14.5%
Molecule: [2H]C([2H])(CN)SSC([2H])([2H])CN [drawing 25]

Molecule: vitamin E
Mean AST level after treatment ([6]; decreased from 104±61 IU/L): 33±11 IU/L | Mean ALT level after treatment ([6]; decreased from 175±106 IU/L): 40±26 IU/L

Molecule: [2H]C([2H])(N)CSSCC([2H])([2H])N [D4n-cystamine, 2,2′-disulfanediylbis(ethan-1,1-d2-1-aminium) chloride]
Cystine reaccumulation after washout, D4n vs D8 [5]: very similar

Rate of hepatocyte elimination / stability, comparison in words [4]: slower than non-deuterated cystamine
Molecule: [2H]C(CN)SSC([2H])CN (stereo not drawn) [D2-Cystamine, 2,2′-disulfanediylbis(ethan-2-d-1-amine)dihydrochloride]
NEM-cysteine level after 3 h incubation and washout [1]: rise and increase | NEM-cysteine level after 3 h incubation and washout ([1]; listed as D2): higher cysteine levels | ALT levels at 8 weeks versus control group [7]: statistically significant difference | Rate of intracellular cystine depletion, comparison in words ([3]; listed as D2-cystamine): slightly slower kinetics | Rate of intracellular cystine depletion, comparison in words ([3]; listed as d2-Cystamine): slightly slower kinetics | Rate of intracellular cystine depletion, comparison in words ([3]; listed as d2-cystamine): slower | Cystine re-accumulation after washout, comparison in words ([5]; 100 uM for 3 h, then drug-free media up to 17 h, vs cystamine): slightly faster | ALT versus untreated control group ([8]; 200 mg/kg once daily gavage, 2 weeks): significantly lower | Hepatic fibrosis, Sirius Red staining of liver sections ([8]; 200 mg/kg once daily gavage, 2 weeks, listed as D2): significant reduction in the amount of positive liver staining | Hepatic fibrosis, Sirius Red staining of liver sections ([8]; 200 mg/kg once daily gavage, 2 weeks, listed as cystamine D2): very significant reduction in hepatic fibrosis | Number of CD11b positive cells in liver tissue versus control group ([8]; 200 mg/kg/day once daily gavage, 2 weeks): statistically significant reduction | Fatty deposits / fat globules in liver, H&E staining ([8]; 2 weeks): reduction in fatty globules | Fatty deposits / fat globules in liver, H&E staining ([8]; 2 weeks, listed as D2): reduced fatty deposits compared to control | TIMP expression, qPCR, versus control ([8]; liver, 2 weeks of treatment): significant reduction

Hepatocyte elimination, % remaining ([4]; TIME 0 min): 100% | Hepatocyte elimination, % remaining ([4]; TIME 15 min): 22.6% | Hepatocyte elimination, % remaining ([4]; TIME 30 min): 24.3% | Hepatocyte elimination, % remaining ([4]; TIME 60 min): 0%
Molecule: [2H]C(CN)SSC([2H])CN (stereo not shown) [drawing 24]

Molecule: Cl.[2H]C([2H])(S)CN [D2-cysteamine, 2-mercaptoethan-2,2-d2-1-aminium chloride]
Rate of hepatocyte elimination / stability, comparison in words [4]: slower rate than cysteamine bitartrate

Molecule: NCCS.O=C(O)C(O)C(O)C(=O)O (stereo not shown) [Cysteamine Bitartrate, reference compound]
Hepatocyte elimination, % remaining ([4]; TIME 0 min): 100% | Hepatocyte elimination, % remaining ([4]; TIME 15 min): 15.4% | Hepatocyte elimination, % remaining ([4]; TIME 30 min): 2.7% | Hepatocyte elimination, % remaining ([4]; TIME 60 min): 1.2%

Molecule: [2H]C([2H])(N)C([2H])([2H])SSC([2H])([2H])C([2H])([2H])N [D8-cystamine]
Cystine reaccumulation after washout, D4n vs D8 [5]: very similar

Molecule: NCCS [Cysteamine, reference compound]
Reduction of intracellular cystine levels [3]: effective and more rapid in its response time | Depletion of intracellular cystine [9]: up to 90%
